The source of these data is US8956999B2, “Herbicides” (Syngenta Limited, priority 2007, dated 2015).

What all share (type): in vivo
Assay [1] has as its system Echinochloa crus-galli (ECHCG). The assay can be described thus: Example B post-emergence herbicidal test, glasshouse. Particulars: 312 h, rate 250 g/ha, evaluated after 13 days, read-out: Post-Emergence Activity ECHGG (100=total damage to plant; 0=no damage to plant). Here is the method:
(§1) Seeds of a variety of test species were sown in standard soil in pots. After cultivation for one day (pre-emergence) or after 8 days cultivation (post-emergence) under controlled conditions in a glasshouse (at 24/16° C., day/night; 14 hours light; 65% humidity), the plants were sprayed with an aqueous spray solution derived from the formulation of the technical active ingredient in acetone/water (50:50) solution containing 0.5% Tween 20 (polyoxyethelyene sorbitan monolaurate, CAS RN 9005-64-5). The test plants were then grown in a glasshouse under controlled conditions in a glasshouse (at 24/16° C., day/night; 14 hours light; 65% humidity) and watered twice daily. After 13 days for pre and post-emergence, the test was evaluated (100=total damage to plant; 0=no damage to plant). Test Plants: Alopecurus myosuroides (ALOMY), Avena fatua (AVEFA), Setaria faberi (SETFA), Echinochloa crus-galli (ECHCG), Solanum nigrum (SOLNI) and Amaranthus retoflexus (AMARE)

For assay [2], the system named is Avena fatua (AVEFA). Described as above. The conditions noted are these: 312 h, rate 250 g/ha, evaluated after 13 days, read-out: Post-Emergence Activity AVEFA (100=total damage to plant; 0=no damage to plant). The procedure: as §1
For assay [3], the system named is Alopecurus myosuroides (ALOMY). The assay is described as above. The conditions noted are these: 312 h, rate 250 g/ha, evaluated after 13 days, read-out: Post-Emergence Activity ALOMY (100=total damage to plant; 0=no damage to plant). Here is the method: as §1
Assay [4] relates to Amaranthus retoflexus (AMARE). Described as above. The conditions noted are these: Amaranthus retroflexus, 312 h, rate 250 g/ha, evaluated after 13 days, read-out: Post-Emergence Activity AMARE (100=total damage to plant; 0=no damage to plant). Here is the method:
as §1

In assay [5] the test system is Setaria faberi (SETFA). Described as above. Particulars: 312 h, rate 250 g/ha, evaluated after 13 days, read-out: Post-Emergence Activity SEFTA (100=total damage to plant; 0=no damage to plant). The procedure:
as §1

In assay [6] the test system is Echinochloa crus-galli (ECHCG). Kind of assay: Example B pre-emergence herbicidal test, glasshouse. Particulars: Echinochloa crus-galli, 312 h, rate 250 g/ha, evaluated after 13 days, 100=total damage to plant, 0=no damage to plant, read-out: Pre-Emergence Activity ECHGG. The procedure:
as §1

The test system of assay [7] is Avena fatua (AVEFA). The assay is described as above. The conditions noted are these: 312 h, rate 250 g/ha, evaluated after 13 days, 100=total damage to plant, 0=no damage to plant. Here is the method: as §1
For assay [8], the system named is Alopecurus myosuroides (ALOMY). The assay is described as above. The conditions noted are these: 312 h, rate 250 g/ha, evaluated after 13 days, 100=total damage to plant, 0=no damage to plant. Here is the method:
as §1

The subject of assay [9] is Amaranthus retoflexus (AMARE). Described as above. The conditions noted are these: Amaranthus retroflexus, 312 h, rate 250 g/ha, evaluated after 13 days, 100=total damage to plant, 0=no damage to plant. Here is the method: as §1
For assay [10], the system named is Setaria faberi (SETFA). The assay is described as above. Particulars: Setaria faberi, 312 h, rate 250 g/ha, evaluated after 13 days, 100=total damage to plant, 0=no damage to plant, read-out: Pre-Emergence Activity SEFTA. Here is the method: as §1

`CC(=O)OC1=C(c2nc(-c3ccc(Br)cc3C)sc2C)C(=O)C(C)(C)OC1(C)C` [Compound P6]: the pest or weed control at 250 g/ha was 100% in assay [1]; 90% in the assay on Avena fatua (AVEFA) [2]; 100% in [3]; 0% in [4]; 100% in the assay on Setaria faberi (SETFA) [5]; 70% in [6]. Also, the pest or weed control at 250 g/ha with Avena fatua (AVEFA) [7] was 80%; in assay [8], 90%; in [9], 0%; in the assay on Setaria faberi (SETFA) [10], 100%.
Turning to `CCc1sc(-c2ccc(Br)cc2C)nc1C1C(=O)C(C)(C)OC(C)(C)C1=O` [Compound T57], the pest or weed control at 250 g/ha in assay [1] was 100%; in the assay on Avena fatua (AVEFA) [2], 90%; in [3], 100%; in assay [4], 0%; in the assay on Setaria faberi (SETFA) [5], 100%; in [6] it was 50%. The pest or weed control at 250 g/ha in the assay with Avena fatua (AVEFA) [7] worked out at 30%; in assay [8], 20%; in assay [9] it was 0%; with Setaria faberi (SETFA) [10], 90%.
In the case of `CCc1sc(-c2ccc(Br)cc2F)nc1C1C(=O)C(C)(C)OC(C)(C)C1=O` [Compound T54], the pest or weed control at 250 g/ha in assay [1] came to 100%; in the assay on Avena fatua (AVEFA) [2] it was 100%; in [3], 100%; in assay [4], 0%; with Setaria faberi (SETFA) [5], 100%; in assay [6], 100%. The pest or weed control at 250 g/ha is 90% in the assay on Avena fatua (AVEFA) [7], 100% in assay [8], 20% in assay [9] and 100% in the assay on Setaria faberi (SETFA) [10].
Turning to `CCc1sc(-c2ccc(Cl)cc2Cl)nc1C1C(=O)C(C)(C)OC(C)(C)C1=O` [Compound T53], the pest or weed control at 250 g/ha was determined as 100% in [1]; 90% in the assay on Avena fatua (AVEFA) [2]; 90% in assay [3]; 0% in assay [4]; 100% with Setaria faberi (SETFA) [5]; 60% in assay [6]. The pest or weed control at 250 g/ha in the assay on Avena fatua (AVEFA) [7] worked out at 0%; in [8], 30%; in [9], 0%; with Setaria faberi (SETFA) [10], 90%.
`CCc1sc(-c2ccc(Cl)cc2F)nc1C1C(=O)C(C)(C)OC(C)(C)C1=O` [Compound T47]: the pest or weed control at 250 g/ha is 100% in [1]; 100% with Avena fatua (AVEFA) [2]; 100% in [3]; 0% in [4]; 100% in the assay with Setaria faberi (SETFA) [5]; 70% in [6]. Moreover, the pest or weed control at 250 g/ha in the assay on Avena fatua (AVEFA) [7] was 90%; in assay [8] it was 70%; in assay [9], 20%; in the assay with Setaria faberi (SETFA) [10] it was 90%.
In the case of `Cc1sc(-c2ccc(Br)cc2F)nc1C1C(=O)C(C)(C)OC(C)(C)C1=O` [Compound T52], the pest or weed control at 250 g/ha in assay [1] was determined as 100%; in the assay on Avena fatua (AVEFA) [2], 100%; in assay [3] it was 100%; in assay [4], 0%; in the assay with Setaria faberi (SETFA) [5], 100%; in assay [6], 80%. In addition, the pest or weed control at 250 g/ha is 0% with Avena fatua (AVEFA) [7], 60% in assay [8], 0% in assay [9] and 100% in the assay on Setaria faberi (SETFA) [10].
On to `Cc1sc(-c2ccc([S+](C)[O-])cc2)nc1C1C(=O)C(C)(C)OC(C)(C)C1=O` (stereo not shown) [Compound T68], for which the pest or weed control at 250 g/ha in assay [1] turned out to be 80%; in the assay on Avena fatua (AVEFA) [2], 0%; in assay [3], 0%; in assay [4] it was 0%; in the assay with Setaria faberi (SETFA) [5], 70%; in assay [6], 20%. The pest or weed control at 250 g/ha in the assay with Avena fatua (AVEFA) [7] amounted to 0%; in assay [8], 0%; in assay [9] it was 0%; with Setaria faberi (SETFA) [10] it was 20%.
With `Cc1cc(Br)ccc1-c1nc(C2C(=O)C(C)(C)OC(C)(C)C2=O)c(C)s1` [Compound T58], the pest or weed control at 250 g/ha in assay [1] stood at 100%; in the assay on Avena fatua (AVEFA) [2], 80%; in [3], 90%; in assay [4] it was 0%; in the assay on Setaria faberi (SETFA) [5], 100%; in [6], 50%. Further, the pest or weed control at 250 g/ha with Avena fatua (AVEFA) [7] stood at 0%; in assay [8], 0%; in assay [9] it was 20%; with Setaria faberi (SETFA) [10] it was 100%.
In the case of `Cc1sc(-c2ccc(Cl)s2)nc1C1C(=O)C(C)(C)OC(C)(C)C1=O` [Compound T55], the pest or weed control at 250 g/ha in [1] was found to be 70%; in the assay on Avena fatua (AVEFA) [2], 0%; in [3] it was 40%; in assay [4] it was 0%; in the assay on Setaria faberi (SETFA) [5], 60%; in assay [6], 20%. For the same molecule, the pest or weed control at 250 g/ha with Avena fatua (AVEFA) [7] came to 0%; in assay [8] it was 0%; in assay [9], 0%; in the assay on Setaria faberi (SETFA) [10] it was 50%.
As to `CCc1sc(-c2ccc(Br)cn2)nc1C1C(=O)C(C)(C)OC(C)(C)C1=O` [Compound T63], the pest or weed control at 250 g/ha in [1] turned out to be 100%; with Avena fatua (AVEFA) [2] it was 90%; in [3], 80%; in [4], 0%; in the assay with Setaria faberi (SETFA) [5], 100%; in assay [6], 30%. For the same molecule, the pest or weed control at 250 g/ha worked out at 20% in the assay with Avena fatua (AVEFA) [7], 20% in assay [8], 0% in assay [9] and 20% in the assay with Setaria faberi (SETFA) [10].
Take `Cc1sc(-c2ccc(OC(F)F)cc2Cl)nc1C1C(=O)C(C)(C)OC(C)(C)C1=O` [Compound T70]: the pest or weed control at 250 g/ha in assay [1] is 90%; in the assay with Avena fatua (AVEFA) [2], 10%; in [3] it was 70%; in assay [4], 0%; in the assay with Setaria faberi (SETFA) [5] it was 90%; in assay [6], 70%. Moreover, the pest or weed control at 250 g/ha was 0% in the assay on Avena fatua (AVEFA) [7], 30% in assay [8], 0% in [9] and 70% in the assay on Setaria faberi (SETFA) [10].
For the molecule `Cc1sc(-c2ccc(Br)cn2)nc1C1=C(OC(=O)C2CC2)C(C)(C)OC(C)(C)C1=O` [Compound P4], the pest or weed control at 250 g/ha was found to be 90% in assay [1]; 0% in the assay on Avena fatua (AVEFA) [2]; 40% in assay [3]; 0% in assay [4]; 90% in the assay on Setaria faberi (SETFA) [5]; 10% in [6]. Besides, the pest or weed control at 250 g/ha in the assay with Avena fatua (AVEFA) [7] was determined as 0%; in assay [8], 0%; in assay [9], 0%; in the assay on Setaria faberi (SETFA) [10] it was 20%.
For the molecule `Cc1sc(-c2ccc(Cl)cc2F)nc1C1C(=O)C(C)(C)OC(C)(C)C1=O` [Compound T21], the pest or weed control at 250 g/ha in assay [1] was 100%; with Avena fatua (AVEFA) [2] it was 90%; in [3], 100%; in [4] it was 0%; in the assay with Setaria faberi (SETFA) [5], 100%; in assay [6], 100%. The pest or weed control at 250 g/ha stood at 0% in the assay with Avena fatua (AVEFA) [7], 60% in [8], 0% in assay [9] and 100% in the assay with Setaria faberi (SETFA) [10].
